“And” between values parts separate entries of the source, which are not always exact repeats. Equal values may be shown once.

Consider two compounds from patent publication US9573987B2 (priority 2011, dated 2017).

For experiment [1], the target named is T1, IGF-1 receptor (Homo sapiens, UniProt P08069). Nature of the experiment: IGF-1 receptor binding assay (competition, scintillation proximity). Details: expressed in transfected cells; plasma membrane fragments. The following applies: Table 9. For orientation: SPA uses beads or plates that emit light when radiolabelled molecules are held near them.
T1 sequence (P08069 31-736 limits assumed): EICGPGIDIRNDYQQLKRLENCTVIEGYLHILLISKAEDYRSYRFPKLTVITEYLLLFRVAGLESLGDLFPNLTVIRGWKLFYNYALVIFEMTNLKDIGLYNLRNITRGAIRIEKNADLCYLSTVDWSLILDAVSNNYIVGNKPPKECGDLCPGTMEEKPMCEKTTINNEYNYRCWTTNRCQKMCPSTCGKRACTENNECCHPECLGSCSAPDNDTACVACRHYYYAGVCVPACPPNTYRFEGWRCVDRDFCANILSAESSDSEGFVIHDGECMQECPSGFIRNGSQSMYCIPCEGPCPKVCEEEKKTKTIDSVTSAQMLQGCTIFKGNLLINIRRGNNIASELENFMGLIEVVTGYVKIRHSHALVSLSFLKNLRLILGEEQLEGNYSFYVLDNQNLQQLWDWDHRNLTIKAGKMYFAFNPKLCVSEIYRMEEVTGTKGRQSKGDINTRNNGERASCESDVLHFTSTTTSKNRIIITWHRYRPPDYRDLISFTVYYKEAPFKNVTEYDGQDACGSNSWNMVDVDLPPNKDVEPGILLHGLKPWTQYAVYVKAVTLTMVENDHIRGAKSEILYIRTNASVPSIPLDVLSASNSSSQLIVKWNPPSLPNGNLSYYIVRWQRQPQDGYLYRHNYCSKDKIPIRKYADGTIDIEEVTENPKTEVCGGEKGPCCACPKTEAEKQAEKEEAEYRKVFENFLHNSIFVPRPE
T1 sequence (P08069 741-1367 partner limits assumed): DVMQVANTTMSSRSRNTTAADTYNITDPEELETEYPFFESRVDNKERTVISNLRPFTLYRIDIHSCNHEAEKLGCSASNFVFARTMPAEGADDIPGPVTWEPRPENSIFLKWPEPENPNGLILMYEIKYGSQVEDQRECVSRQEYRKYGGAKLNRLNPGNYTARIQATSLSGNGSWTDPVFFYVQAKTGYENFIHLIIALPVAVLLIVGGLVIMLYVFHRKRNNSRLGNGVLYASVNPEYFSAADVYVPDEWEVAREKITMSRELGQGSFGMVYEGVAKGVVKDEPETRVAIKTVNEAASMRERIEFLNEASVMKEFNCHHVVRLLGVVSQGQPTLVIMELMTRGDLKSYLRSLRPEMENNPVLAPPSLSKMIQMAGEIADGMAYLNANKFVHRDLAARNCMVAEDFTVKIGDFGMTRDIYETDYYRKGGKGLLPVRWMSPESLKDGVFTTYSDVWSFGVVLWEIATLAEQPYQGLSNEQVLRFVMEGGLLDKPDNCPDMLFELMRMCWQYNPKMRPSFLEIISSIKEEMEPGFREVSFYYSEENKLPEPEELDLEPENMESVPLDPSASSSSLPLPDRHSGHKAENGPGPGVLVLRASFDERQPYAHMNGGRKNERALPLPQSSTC
Experiment [2] deals with T2, insulin receptor (Homo sapiens, UniProt P06213). The experiment is described as follows: Insulin receptor phosphorylation assay, receptor transfected HEK293 cells. The experiment is classed as cell-based. Also on record: expressed in transfected cells; host or cells: HEK293. The following applies: Table 10. On the procedure:
(§1) Color development was stopped 5 min later by adding 0.05 ml 1 N HCl. Absorbance at 450 nm was measured on Titertek Multiscan MCC340 (ThermoFisher, Pittsburgh, Pa.).

The target in experiment [3] is T2, insulin receptor. The experiment is described as follows: Insulin receptor binding assay (competition, scintillation proximity). Also on record: expressed in transfected cells; plasma membrane fragments.
Experiment [4] deals with T1, IGF-1 receptor. The experiment is described as follows: IGF-1 receptor phosphorylation assay, receptor transfected HEK293 cells. The conditions noted are these: Table 10; for EC50: total phosphorylation. Also on record: expressed in transfected cells; host or cells: HEK293. The experiment is classed as cell-based. The protocol: as §1

T2 sequence (P06213 28-758 limits assumed): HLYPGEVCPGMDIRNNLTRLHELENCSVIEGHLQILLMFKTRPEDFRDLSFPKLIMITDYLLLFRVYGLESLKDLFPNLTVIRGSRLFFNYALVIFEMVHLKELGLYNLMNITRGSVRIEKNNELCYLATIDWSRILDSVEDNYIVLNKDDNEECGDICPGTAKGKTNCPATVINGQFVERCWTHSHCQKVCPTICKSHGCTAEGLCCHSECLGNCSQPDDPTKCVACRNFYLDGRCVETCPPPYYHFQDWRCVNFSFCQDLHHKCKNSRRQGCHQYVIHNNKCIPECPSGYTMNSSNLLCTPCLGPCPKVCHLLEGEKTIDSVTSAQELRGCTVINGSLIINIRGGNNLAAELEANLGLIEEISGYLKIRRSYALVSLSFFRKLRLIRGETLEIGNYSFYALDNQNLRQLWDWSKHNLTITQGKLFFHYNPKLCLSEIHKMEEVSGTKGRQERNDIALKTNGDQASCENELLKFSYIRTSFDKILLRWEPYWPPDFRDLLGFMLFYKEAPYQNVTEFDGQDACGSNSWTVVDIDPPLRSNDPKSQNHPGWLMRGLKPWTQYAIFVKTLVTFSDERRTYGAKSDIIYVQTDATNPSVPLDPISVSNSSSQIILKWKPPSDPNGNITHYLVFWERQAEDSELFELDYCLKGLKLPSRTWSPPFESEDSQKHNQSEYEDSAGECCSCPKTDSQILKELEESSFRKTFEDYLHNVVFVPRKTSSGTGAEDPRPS
T2 sequence (P06213 763-1382 partner limits assumed): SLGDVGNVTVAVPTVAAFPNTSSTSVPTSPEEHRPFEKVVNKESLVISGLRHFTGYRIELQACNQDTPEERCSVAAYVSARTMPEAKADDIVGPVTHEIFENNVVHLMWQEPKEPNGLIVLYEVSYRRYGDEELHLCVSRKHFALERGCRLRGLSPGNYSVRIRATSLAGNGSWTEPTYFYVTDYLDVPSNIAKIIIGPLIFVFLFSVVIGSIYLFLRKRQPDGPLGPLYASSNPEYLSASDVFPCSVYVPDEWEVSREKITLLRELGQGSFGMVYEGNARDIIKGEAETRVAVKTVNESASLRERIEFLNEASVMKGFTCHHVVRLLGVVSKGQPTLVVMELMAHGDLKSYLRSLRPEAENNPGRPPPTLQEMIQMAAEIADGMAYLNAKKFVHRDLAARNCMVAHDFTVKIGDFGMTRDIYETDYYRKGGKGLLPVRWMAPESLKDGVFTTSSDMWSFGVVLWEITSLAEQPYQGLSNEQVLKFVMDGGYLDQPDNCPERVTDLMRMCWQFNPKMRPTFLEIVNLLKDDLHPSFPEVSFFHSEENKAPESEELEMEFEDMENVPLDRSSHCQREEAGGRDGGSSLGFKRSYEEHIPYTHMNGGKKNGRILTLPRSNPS

`CC[C@H](C)[C@H](NC(=O)CN)C(=O)N[C@H](C(=O)N[C@@H](CC(=O)O)C(=O)N[C@@H](CCC(=O)O)C(=O)N[C@H]1CSSC[C@@H]2NC(=O)[C@H](CO)NC(=O)[C@H](C)NC(=O)[C@H](Cc3c[nH]cn3)NC(=O)[C@H](CSSC[C@H](NC(=O)[C@H](CC(C)C)NC(=O)[C@H](Cc3c[nH]cn3)NC(=O)[C@H](CCC(=O)O)NC(=O)[C@@H]3CCCN3C(=O)CN)C(=O)NCC(=O)N[C@@H](C)C(=O)N[C@@H](CC(=O)O)C(=O)N[C@@H](CC(C)C)C(=O)N[C@@H](C(C)C)C(=O)N[C@@H](CC(=O)O)C(=O)N[C@@H](C)C(=O)N[C@@H](CC(C)C)C(=O)N[C@@H](Cc3ccc(O)cc3)C(=O)N[C@@H](CC(C)C)C(=O)N[C@@H](C(C)C)C(=O)N[C@H](C(=O)NCC(=O)N[C@@H](CC(=O)O)C(=O)N[C@@H](CCCNC(=N)N)C(=O)NCC(=O)N[C@@H](Cc3ccccc3)C(=O)N[C@@H](Cc3ccc(O)cc3)C(N)=O)CSSC[C@@H](C(=O)N[C@@H](CC(N)=O)C(=O)O)NC(=O)[C@H](Cc3ccc(O)cc3)NC(=O)[C@H](CCSC)NC(=O)[C@H](CCC(=O)O)NC(=O)[C@H](CC(C)C)NC(=O)[C@H](CCCNC(=N)N)NC(=O)[C@H](CCCNC(=N)N)NC(=O)[C@H](CC(C)C)NC(=O)[C@H](CC(=O)O)NC2=O)NC1=O)C(C)C`: the “IGF-1 Receptor % IGF-1 (in test)” value in experiment [1] was 12.9%. In addition, the EC50 – broadly, the concentration needed to bring the measured effect to its halfway point – in experiment [2] (Insulin Receptor EC50:, total phosphorylation) is 150 pM and 250 pM. The “Insulin Receptor % Insulin” value in experiment [2] (listed as IGF-1 A (H8 A9 N21) B(H5D10Y16L17) DPI A-COOH) was 840% and 1080%. Moreover, in experiment [3] (IGF-1 receptor IC50 over insulin receptor IC50), the Ratio turned out to be 80.6. The “Insulin Receptor % insulin (in test)” value in experiment [3] (Table 9) was 1576.7% and 1667.0%. Further, in experiment [4], the “IGF-1 Receptor % IGF” value came to 181.395% and the midpoint of the response, the EC50, lay at 430 pM.

Turning to `CC[C@H](C)[C@H](NC(=O)CN)C(=O)N[C@H](C(=O)N[C@@H](CC(=O)O)C(=O)N[C@@H](CCC(=O)O)C(=O)N[C@H]1CSSC[C@@H]2NC(=O)[C@H](CO)NC(=O)[C@H](CCCNC(=N)N)NC(=O)[C@H](Cc3ccccc3)NC(=O)[C@H](CSSC[C@H](NC(=O)[C@H](CC(C)C)NC(=O)[C@@H](NC(=O)[C@H](CCC(=O)O)NC(=O)[C@@H]3CCCN3C(=O)CN)[C@@H](C)O)C(=O)NCC(=O)N[C@@H](C)C(=O)N[C@@H](CC(=O)O)C(=O)N[C@@H](CC(C)C)C(=O)N[C@@H](C(C)C)C(=O)N[C@@H](CC(=O)O)C(=O)N[C@@H](C)C(=O)N[C@@H](CC(C)C)C(=O)N[C@@H](Cc3ccc(O)cc3)C(=O)N[C@@H](CC(C)C)C(=O)N[C@@H](C(C)C)C(=O)N[C@H](C(=O)NCC(=O)N[C@@H](CC(=O)O)C(=O)N[C@@H](CCCNC(=N)N)C(=O)NCC(=O)N[C@@H](Cc3ccccc3)C(=O)N[C@@H](Cc3ccc(O)cc3)C(N)=O)CSSC[C@@H](C(=O)N[C@@H](C)C(=O)O)NC(=O)[C@H](Cc3ccc(O)cc3)NC(=O)[C@H](CCSC)NC(=O)[C@H](CCC(=O)O)NC(=O)[C@H](CC(C)C)NC(=O)[C@H](CCCNC(=N)N)NC(=O)[C@H](CCCNC(=N)N)NC(=O)[C@H](CC(C)C)NC(=O)[C@H](CC(=O)O)NC2=O)NC1=O)C(C)C` [IGF-1 A:B(D10Y16L17) DPI A-COOH], the “IGF-1 Receptor % IGF-1 (in test)” value in experiment [1] is on record as 7.7%. Also, in experiment [2], the “Insulin Receptor % Insulin” value was 1575%. For the same compound, in experiment [4], the “IGF-1 Receptor % IGF” value is listed as 111.538% and the EC50 stood at 780 pM.
